Results: patent US20100249145A1, “Inhibitors of VEGF Receptor and HGF Receptor Signaling” (Methylgene, Inc., priority 2005, published 2010)
Like-named read-outs stand apart in the source and are kept apart here.

Legend:
[1] = target: T1, recombinant human c-Met/HGF receptor (Homo sapiens, UniProt P08581); assay: In vitro receptor tyrosine kinase assay (DELFIA), c-Met/HGF receptor; format: biochemical; details: ATP 10 uM, enzyme 25 nM
T1 construct: His tag (histidine tag from pBlueBacHis2A); made in house; host or cells: Hi-5 cells (Trichoplusia ni), recombinant baculovirus

A549 = A549 wound healing inhibition (HGF dependent migration); format: cell-based; details: Homo sapiens, Table 31, read-out: A549 wound healing inbib IC50
Description: (§1) HGF has well known activity in terms of inducing scattering and migration (wound healing) (Wells et al., Cell Motil Cytoskeleton. 2005 November 62(3):180-94; Miura et al., Urology 2001 December 58(6):1064-9; Nishimura et al., Int J. Urol. 1998 May 5(3):276-81; Wang et al., Mol Cancer Ther. 2003 November; 2(11):1085-92; and Christensen et al., Cancer Res. 2003 Nov. 1; 63(21):7345-55).

DU145 = DU145 scattering inhibition (HGF dependent scattering); format: cell-based; details: Homo sapiens, DU-145, Table 31, read-out: DU145 scattering inhib IC50
Description: as §1

VEGF receptor KDR = target: T2, VEGF receptor KDR (Homo sapiens, UniProt P35968); assay: In vitro receptor tyrosine kinase assay (DELFIA), VEGF receptor KDR; format: biochemical; details: ATP 0.6 uM, enzyme 5 nM
T2 construct: made in house; host or cells: Sf9 cells (Spodoptera frugiperda), recombinant baculovirus
Description: In Vitro Receptor Tyrosine Kinase Assays (c-Met/HGF receptor and VEGF Receptor KDR)
In the case of VEGF receptor KDR a 1.6-kb cDNA corresponding to the catalytic domain of VEGFR2 or KDR (Genbank accession number AF035121 amino acid 806 to 1356) was cloned into the Pst I site of the pDEST20 Gateway vector (Invitrogen) for the production of a GST-tagged version of that enzyme.
The GST-VEGFR2806-1356 protein was expressed in Sf9 cells (Spodoptera frugiperda) upon infection with recombinant baculovirus construct.
The supernatant was loaded onto a GST-agarose column (Sigma) equilibrated with PBS pH 7.3. Following a four column volume (CV) wash with PBS pH 7.3+1% Triton X-100 and 4 CV wash with buffer B (50 mM Tris pH 8.0, 20% glycerol and 100 mM NaCl), bound proteins were step eluted with 5 CV of buffer B supplemented with 5 mM DTT and 15 mM glutathion. […] Final GST-VEGFR2806-1356 protein preparations concentrations were about 0.7 mg/ml with purity approximating 70%.

[2] = Table 30, read-out: C-Met (enz.) (IC50)
[3] = Table 30, read-out: VEGF(enz.) (IC50)

T2 sequence (P35968 806-1356): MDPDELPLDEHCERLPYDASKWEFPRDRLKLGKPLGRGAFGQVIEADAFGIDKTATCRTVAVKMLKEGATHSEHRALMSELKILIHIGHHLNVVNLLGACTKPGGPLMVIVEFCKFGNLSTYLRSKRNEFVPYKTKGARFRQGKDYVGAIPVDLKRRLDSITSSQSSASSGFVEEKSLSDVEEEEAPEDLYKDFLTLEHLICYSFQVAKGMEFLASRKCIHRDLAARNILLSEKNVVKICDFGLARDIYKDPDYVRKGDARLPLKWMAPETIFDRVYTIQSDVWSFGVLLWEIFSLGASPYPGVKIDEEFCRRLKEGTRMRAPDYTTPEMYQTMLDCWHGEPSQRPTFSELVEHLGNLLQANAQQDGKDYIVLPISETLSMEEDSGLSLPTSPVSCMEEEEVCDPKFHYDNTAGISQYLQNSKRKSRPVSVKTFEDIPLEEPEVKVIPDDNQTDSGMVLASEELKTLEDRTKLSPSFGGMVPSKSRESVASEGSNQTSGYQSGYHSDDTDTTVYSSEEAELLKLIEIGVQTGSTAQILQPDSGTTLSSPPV
T1 sequence (P08581 1078-1337): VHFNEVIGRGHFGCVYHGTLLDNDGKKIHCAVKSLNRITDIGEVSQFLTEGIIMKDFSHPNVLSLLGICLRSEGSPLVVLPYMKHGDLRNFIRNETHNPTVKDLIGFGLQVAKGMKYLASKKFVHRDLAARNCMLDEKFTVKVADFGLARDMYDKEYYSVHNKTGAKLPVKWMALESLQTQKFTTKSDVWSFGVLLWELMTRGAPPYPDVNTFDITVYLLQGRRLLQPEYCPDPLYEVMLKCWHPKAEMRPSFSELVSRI

SMILES | IC50 ([1]; Table 31, read-out: CMet ic50) [nM] | IC50 (A549) [nM] | IC50 (DU145) [nM] | IC50 (VEGF receptor KDR; Table 31, read-out: VEGFR IC50) [nM] | IC50 [1, 2] [nM] | IC50 (VEGF receptor KDR; [3]) [nM]
C#Cc1ccccc1CC(=O)NC(=S)Nc1ccc(Oc2ccnc3cc(-c4cn(CCN5CCCC5)cn4)sc23)c(F)c1 | < 50 | < 1000 | < 1000 | < 50 |  | 
Cc1ccccc1CC(=O)NC(=S)Nc1ccc(Oc2ccnc3cc(C4=CCN(C)CC4)sc23)c(F)c1 | < 50 | < 1000 | < 1000 | 250 to 500 |  | 
C#Cc1ccccc1CC(=O)NC(=S)Nc1ccc(Oc2ccnc3cc(-c4cccc[n+]4[O-])sc23)c(F)c1 | < 50 | < 1000 | < 1000 | < 50 |  | 
CCn1ccc2ncnc(Oc3ccc(NC(=S)NC(=O)Cc4ccccc4)cc3F)c21 [Example 29, 1-(4-(5-Ethyl-5H-pyrrolo[3,2-d]pyrimidin-4-yloxy)-3-fluorophenyl)-3-(2-phenylacetyl)thiourea] |  |  |  |  | 250 to 500 | > 500
Cn1ccc2ncnc(Oc3ccc(NC(=S)NC(=O)Cc4ccccc4)cc3F)c21 [Example 28, 1-(4-(5-Methyl-5H-pyrrolo[3,2-d]pyrimidin-4-yloxy)-3-fluorophenyl)-3-(2-phenylacetyl)thiourea] |  |  |  |  | 50 to 250 | > 500
C#Cc1ccccc1CC(=O)NC(=S)Nc1ccc(Oc2ccnc3cc(-c4cn(C)cn4)sc23)c(F)c1 [drawing 451] | < 50 | < 1000 | < 1000 | < 50 |  | 
O=C(Cc1ccccc1)NC(=S)Nc1ccc(Oc2ccnc3cc(-c4cn(CCN5CCCC5)cn4)sc23)c(F)c1 | < 50 | 5000 to 10000 | < 1000 | < 50 |  | 
Cn1cnc(-c2cc3nccc(Nc4ccc(NC(=S)NC(=O)Cc5ccccc5)cc4F)c3s2)c1 | < 50 | < 1000 | < 1000 | > 500 |  | 
NC(=O)c1cc2nccc(Oc3ccc(NC(=S)NC(=O)Cc4ccccc4)cc3F)c2s1 [Example 9, 1-(4-(2-carbamoylthieno[3,2-b]pyridin-7-yloxy)-3-fluorophenyl)-3-(2-phenylacetyl)thiourea] |  |  |  |  |  | 50 to 250
CCn1cnc(-c2cc3nccc(Oc4ccc(NC(=S)NC(=O)Cc5ccccc5O)cc4F)c3s2)c1 | < 50 | 1000 to 5000 | 1000 to 5000 | < 50 |  | 
CON(C)C(=O)c1cc2ncnc(Oc3ccc(NC(=S)NC(=O)Cc4ccccc4)cc3F)c2s1 [Example 26, 1-(4-(6-(N-Methoxy-N-methylcarbamoyl)thieno [3,2-d]pyrimidin-4-yloxy)-3-fluorophenyl)-3-(2-phenylacetyl)thiourea] |  |  |  |  | 50 to 250 | 50 to 250
CN(c1ccc(NC(=S)NC(=O)Cc2ccccc2)cc1F)c1ccnc2cc(-c3nccn3C)sc12 | < 50 | < 1000 | < 1000 | > 500 |  | 
CC(O)c1cc2nccc(Oc3ccc(NC(=S)NC(=O)Cc4ccccc4)cc3F)c2s1 (stereo not drawn) [Example 20, 1-(4-(2-(1-Hydroxyethyl)thieno[3,2-b]pyridin-7-yloxy)-3-fluorophenyl)-3-(2-phenylacetyl)thiourea] |  |  |  |  |  | > 500
O=C(Cc1ccccc1)NC(=S)Nc1ccc(Oc2ccnc3ccsc23)cc1 [Example 188, 2-Phenyl-N-(4-(thieno[3,2-b]pyridin-7-yloxy)phenylcarbamothioyl)acetamide] |  |  |  |  |  | > 500
COCCNCc1ccc(-c2cc3nccc(Oc4ccc(NC(=S)NC(=O)Cc5ccc(F)cc5)cc4F)c3s2)nc1 |  | < 1000 | < 1000 | < 50 |  | 
Cc1ccccc1CC(=O)NC(=S)Nc1ccc(Oc2ccnc3cc(-c4cn(C)cn4)sc23)c(F)c1 | < 50 | < 1000 |  | < 50 |  | 
NC(=O)c1cc2ncnc(Oc3ccc(NC(=S)NC(=O)Cc4ccccc4)cc3F)c2s1 [Example 27, 1-(4-(6-Carbamoylthieno[3,2-d]pyrimidin-4-yloxy)-3-fluorophenyl)-3-(2-phenylacetyl)thiourea] |  |  |  |  | 50 to 250 | 50 to 250
O=C(Cc1ccccc1)NC(=S)Nc1ccc(Oc2ccnc3ccsc23)c(F)c1 [Example 133, N-(3-Fluoro-4-(thieno[3,2-b]pyridin-7-yloxy)phenylcarbamothioyl)-2-phenylacetamide] |  |  |  |  |  | 50 to 250
CNC(=O)c1cc2nccc(Oc3ccc(NC(=S)NC(=O)Cc4ccccc4)cc3F)c2s1 [Example 5, 1-(4-(2-(methylcarbamoyl)thieno[3,2-b]pyridin-7-yloxy)-3-fluorophenyl)-3-(2-phenylacetyl)thiourea] |  |  |  |  |  | 50 to 250
CNC(=O)c1cc2ncnc(Oc3ccc(NC(=S)NC(=O)Cc4ccccc4)cc3F)c2s1 [Example 25, 1-(4-(6-(Methylcarbamoyl)thieno[3,2-d]pyrimidin-4-yloxy)-3-fluorophenyl)-3-(2-phenylacetyl)thiourea] |  |  |  |  | 50 to 250 | 50 to 250

Now from value to molecule:

IC50 ([1]; Table 31, read-out: CMet ic50) [nM] | IC50 (A549) [nM] | IC50 (DU145) [nM] | IC50 (VEGF receptor KDR; Table 31, read-out: VEGFR IC50) [nM] | IC50 [1, 2] [nM] | IC50 (VEGF receptor KDR; [3]) [nM] | SMILES
< 50 | 1000 to 5000 | < 1000 |  |  |  | CCn1cncc1-c1cc2nccc(Oc3ccc(NC(=S)NC(=O)Cc4ccccc4OC)cc3F)c2s1
< 50 |  | < 1000 | < 50 |  |  | CN(CCO)Cc1ccc(-c2cc3nccc(Oc4ccc(NC(=S)NC(=O)Cc5ccc(F)cc5)cc4F)c3s2)nc1
50 to 250 | < 1000 | 1000 to 5000 | < 50 |  |  | C#Cc1ccc(CC(=O)NC(=S)Nc2ccc(Oc3ccnc4cc(-c5nccn5C)sc34)c(F)c2)cc1F
< 50 | < 1000 | < 1000 | < 50 |  |  | Cn1ccnc1-c1cc2nccc(Oc3ccc(NC(=S)NC(=O)Cc4ccc(F)cc4F)cc3F)c2s1
< 50 | 1000 to 5000 | 1000 to 5000 | 50 to 250 |  |  | CO/N=C(\C)c1cc2nccc(Oc3ccc(NC(=S)NC(=O)Cc4ccccc4)cc3F)c2s1
< 50 | < 1000 | < 1000 | < 50 |  |  | CCn1cnc(-c2cc3nccc(Oc4ccc(NC(=S)NC(=O)Cc5ccccc5C)cc4F)c3s2)c1 [drawing 441]
< 50 | < 1000 | < 1000 | < 50 |  |  | C#Cc1ccccc1CC(=O)NC(=S)Nc1ccc(Oc2ccnc3cc(-c4ccc(CNCCOC)cn4)sc23)c(F)c1
50 to 250 | > 10000 | > 10000 | < 50 |  |  | C#Cc1ccc(CC(=O)NC(=S)Nc2ccc(Oc3ccnc4cc(-c5ccc(CN(C)CCO)cc5)sc34)c(F)c2)cc1
< 50 | < 1000 | < 1000 | < 50 |  |  | CC(=O)N1CC=C(c2cc3nccc(Oc4ccc(NC(=S)NC(=O)Cc5ccc(F)cc5)cc4F)c3s2)CC1
< 50 | < 1000 | < 1000 | < 50 |  |  | Cn1ccnc1-c1cc2nccc(Oc3ccc(NC(=S)NC(=O)Cc4ccc(F)cc4)cc3F)c2s1
< 50 | < 1000 | < 1000 | < 50 |  |  | CN1CCN(Cc2ccc(-c3cc4nccc(Oc5ccc(NC(=S)NC(=O)Cc6ccc(F)cc6)cc5F)c4s3)cc2)CC1
50 to 250 | > 10000 | 1000 to 5000 | 50 to 250 |  |  | COc1ccccc1CC(=O)NC(=S)Nc1ccc(Oc2ccnc3cc(-c4cn(CC(N)=O)cn4)sc23)c(F)c1
50 to 250 | > 10000 | 1000 to 5000 | > 500 |  |  | C#Cc1cc2nccc(Oc3ccc(NC(=S)NC(=O)Cc4ccccc4)cc3F)c2s1
< 50 | < 1000 | < 1000 | 50 to 250 |  |  | Cn1cnc(-c2cc3nccc(Oc4ccc(NC(=S)NC(=O)Cc5cccc(F)c5)cc4F)c3s2)c1
 |  |  |  |  | < 50 | O=C(Cc1ccccc1)NC(=S)Nc1ccc(Oc2ccnc3cc(-c4cccs4)sc23)c(F)c1 [Example 16]
 | < 1000 | < 1000 |  |  |  | CCCNCc1ccc(-c2cc3nccc(Oc4ccc(NC(=S)NC(=O)Cc5ccc(F)cc5)cc4F)c3s2)cc1
 |  |  |  |  | 50 to 250 | O=C(Cc1ccccc1)NC(=S)Nc1ccc(Oc2ccnc3cc(-c4cccnc4)sc23)c(F)c1 [Example 18]
 | < 1000 | < 1000 |  |  |  | COCCNCc1ccc(-c2cc3nccc(Oc4ccc(NC(=S)NC(=O)Cc5ccc(F)cc5)cc4F)c3s2)c(F)c1
 |  |  |  |  | 50 to 250 | O=C(Cc1ccccc1)NC(=S)Nc1ccc(Oc2ccnc3cc(-c4ncccn4)sc23)c(F)c1 [Example 14, N-(3-Fluoro-4-(2-(pyrimidin-2-yl)thieno[3,2-b]pyridin-7-yloxy)phenylcarbamothioyl)-2-phenylacetamide]
< 50 | < 1000 | < 1000 |  |  |  | COCCN(CCOC)Cc1cccc(-c2cc3nccc(Oc4ccc(NC(=S)NC(=O)Cc5ccc(F)cc5)cc4F)c3s2)c1
